# Test results taken from PMC8308911, “Pharmacokinetic Study of Anti-osteoarthritic Compounds of a Standardized Fraction from Sphaeralcea Angustifolia” (Pharmaceuticals, 2021).
# Like-named read-outs stand apart in the source and are kept apart here.
# Tests used:
# [1] = mouse
# Description: (§1) The investigation presented here expected manipulation conditions during all of the sample storage and process periods, which included the stability data from the freeze/defrost, bench-top, autosampler, and long-term stability tests. For all stability studies, fresh QC samples were evaluated by using a freshly prepared standard curve for the measurements. The analyzed conditions were 0, 8, and 24 h at room temperature, 8 h at 4 °C, and 30 days at −70 °C. The concentrations obtained from all of the stability studies were compared with the fresh QC samples, and the percentage of concentration deviation was calculated.
# [2] = Stability of the active compounds in mouse plasma under handling and storage conditions; settings: mice plasma
# Description: as §1
# [3] = Autosampler (4 °C, 8 h), nominal 2.5 μg/mL
# [4] = Autosampler (4 °C, 8 h), nominal 5 μg/mL
# [5] = Autosampler (4 °C, 8 h), nominal 10 μg/mL
# [6] = Long-term (−70 °C, 1 month), nominal 2.5 μg/mL
# [7] = Long-term (−70 °C, 1 month), nominal 5 μg/mL
# [8] = Long-term (−70 °C, 1 month), nominal 10 μg/mL
# [9] = room temperature, 0 h, nominal 2.5 μg/mL
# [10] = room temperature, 0 h, nominal 5 μg/mL
# [11] = room temperature, 0 h, nominal 10 μg/mL
# [12] = room temperature, 8 h, nominal 2.5 μg/mL
# [13] = room temperature, 8 h, nominal 5 μg/mL
# [14] = room temperature, 8 h, nominal 10 μg/mL
# [15] = room temperature, 24 h, nominal 2.5 μg/mL
# [16] = room temperature, 24 h, nominal 5 μg/mL
# [17] = room temperature, 24 h, nominal 10 μg/mL
compound,measurement,setting,value
"COc1cc2ccc(=O)oc2cc1O [Scopoletin, scopoletin]",Accuracy Bias,"[1]; 0 h, 2.5 μg/mL",−0.48%
same,Observed Concentration,"[1]; 0 h, 2.5 μg/mL",2.49 ± 0.12 µg/mL
same,Accuracy Bias,"[1]; 0 h, 5 μg/mL",0.39%
same,Observed Concentration,"[1]; 0 h, 5 μg/mL",5.02 ± 0.08 µg/mL
same,Accuracy Bias,"[1]; 0 h, 10 μg/mL",0.04%
same,Observed Concentration,"[1]; 0 h, 10 μg/mL",10.00 ± 0.37 µg/mL
same,Accuracy Bias,"[1]; 1 month, 2.5 μg/mL",−7.05%
same,Observed Concentration,"[1]; 1 month, 2.5 μg/mL",2.32 ± 0.08 µg/mL
same,Accuracy Bias,"[1]; 1 month, 5 μg/mL",−2.27%
same,Observed Concentration,"[1]; 1 month, 5 μg/mL",4.89 ± 0.17 µg/mL
same,Accuracy Bias,"[1]; 1 month, 10 μg/mL",−0.46%
same,Observed Concentration,"[1]; 1 month, 10 μg/mL",9.95 ± 0.38 µg/mL
same,Accuracy Bias,"[1]; 24 h, 2.5 μg/mL",−4.63%
same,Observed Concentration,"[1]; 24 h, 2.5 μg/mL",2.38 ± 0.08 µg/mL
same,Accuracy Bias,"[1]; 24 h, 5 μg/mL",0.43%
same,Observed Concentration,"[1]; 24 h, 5 μg/mL",5.02 ± 0.10 µg/mL
same,Accuracy Bias,"[1]; 24 h, 10 μg/mL",−6.61%
same,Observed Concentration,"[1]; 24 h, 10 μg/mL",9.34 ± 0.27 µg/mL
"COc1cc2oc(=O)ccc2c(O)c1OC [Tomentin, tomentin]",Accuracy Bias,[2]; [3],−2.64%
same,Observed Concentration,[2]; [3],2.43 ± 0.11 µg/mL
same,Accuracy Bias,[2]; [4],−1.65%
same,Observed Concentration,[2]; [4],4.92 ± 0.14 µg/mL
same,Accuracy Bias,[2]; [5],−0.65%
same,Observed Concentration,[2]; [5],9.93 ± 0.62 µg/mL
same,Accuracy Bias,[2]; [6],−7.61%
same,Observed Concentration,[2]; [6],2.31 ± 0.09 µg/mL
same,Accuracy Bias,[2]; [7],−2.90%
same,Observed Concentration,[2]; [7],4.85 ± 0.18 µg/mL
same,Accuracy Bias,[2]; [8],−3.74%
same,Observed Concentration,[2]; [8],9.63 ± 0.65 µg/mL
same,Accuracy Bias,[2]; [9],−4.59%
same,Observed Concentration,[2]; [9],2.39 ± 0.09 µg/mL
same,Accuracy Bias,[2]; [10],−1.48%
same,Observed Concentration,[2]; [10],4.93 ± 0.11 µg/mL
same,Accuracy Bias,[2]; [11],−0.41%
same,Observed Concentration,[2]; [11],9.96 ± 0.30 µg/mL
same,Accuracy Bias,[2]; [12],−7.60%
same,Observed Concentration,[2]; [12],2.31 ± 0.08 µg/mL
same,Accuracy Bias,[2]; [13],−0.86%
same,Observed Concentration,[2]; [13],4.96 ± 0.14 µg/mL
same,Accuracy Bias,[2]; [14],−1.64%
same,Observed Concentration,[2]; [14],9.84 ± 0.40 µg/mL
same,Accuracy Bias,[2]; [15],−5.93%
same,Observed Concentration,[2]; [15],2.35 ± 0.09 µg/mL
same,Accuracy Bias,[2]; [16],−1.73%
same,Observed Concentration,[2]; [16],4.91 ± 0.17 µg/mL
same,Accuracy Bias,[2]; [17],−4.52%
same,Observed Concentration,[2]; [17],9.55 ± 0.19 µg/mL
